Earlier results in US6838451B1, “Methods and compositions for the prevention and treatment of inflammation, osteoarthritis, and other degenerative joint diseases” (Pharmanutrients, priority 2000, dated 2005).

Assays:
[1] = dietary supplement

Molecule	excreted as exhaled carbon dioxide (of the absorbed glucosamine) [%]	excreted in the urine (of the absorbed glucosamine) [%]	remaining in the tissues (of the absorbed glucosamine) [%]	absorbed from the small intestine (sulfate form)	toxicity [1]
N[C@H]1C(O)O[C@H](CO)[C@@H](O)[C@@H]1O (some centres unmarked) [glucosamine]	65	25	10	over 90%	
conjugated linoleic acid					nontoxic
